Like-named read-outs stand apart in the source and are kept apart here. Starred links: 1 amine or outer side, 2 acyl side, 3 side chain; linkers in the order of their positions; H or OH if unused. Non-standard residues stand in square brackets, D forms with d. Residues, ends and D or L forms follow the SMILES beside them. Groups on a side chain read outwards from the residue. *: point of attachment. C20 diacid = O=C(O)CCCCCCCCCCCCCCCCCCC(=O)*; Pro(4S-NH2) = N[C@@H]1CN[C@H](C(=O)O)C1; γGlu = O=C(O)[C@H](CCC(=O)[*:2])N[*:1]; Nle = CCCC[C@H](N)C(=O)O; AEEA = NCCOCCOCC(=O)O
Legend:
[1] = target: T1, hCRHR2 (Homo sapiens, UniProt Q13324); assay: HTRF cAMP assay, determination of hCRHR2 potency (peptide libraries 5 conc., purified peptides 11 conc.); assay type: cell-based
T1 sequence (Q13324 1-411): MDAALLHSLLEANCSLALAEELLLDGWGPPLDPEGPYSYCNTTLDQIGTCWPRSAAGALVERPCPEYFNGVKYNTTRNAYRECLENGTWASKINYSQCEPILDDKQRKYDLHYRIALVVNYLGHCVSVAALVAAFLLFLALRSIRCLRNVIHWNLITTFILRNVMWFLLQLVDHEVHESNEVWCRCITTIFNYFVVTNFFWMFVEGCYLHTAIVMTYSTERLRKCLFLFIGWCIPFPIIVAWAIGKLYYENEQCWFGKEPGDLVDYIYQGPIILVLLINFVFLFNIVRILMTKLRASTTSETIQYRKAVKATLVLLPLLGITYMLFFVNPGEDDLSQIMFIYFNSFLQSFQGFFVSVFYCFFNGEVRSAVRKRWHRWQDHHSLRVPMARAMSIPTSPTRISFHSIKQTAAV
How it was run: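 EC50 derived by variable-slope sigmoid regression of FRET-based cAMP data; cellular cAMP displaced d2-labelled tracer from cryptate anti-cAMP antibody. Stable human CRHR2 CHO-K1 suspension cells, revived from frozen stocks just before the run.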

[2] = target: T2, hCRHR1 (Homo sapiens, UniProt P34998); assay: HTRF cAMP assay, determination of hCRHR1 potency (peptide libraries 5 conc., purified peptides 11 conc.); assay type: cell-based
T2 sequence (P34998 24-415): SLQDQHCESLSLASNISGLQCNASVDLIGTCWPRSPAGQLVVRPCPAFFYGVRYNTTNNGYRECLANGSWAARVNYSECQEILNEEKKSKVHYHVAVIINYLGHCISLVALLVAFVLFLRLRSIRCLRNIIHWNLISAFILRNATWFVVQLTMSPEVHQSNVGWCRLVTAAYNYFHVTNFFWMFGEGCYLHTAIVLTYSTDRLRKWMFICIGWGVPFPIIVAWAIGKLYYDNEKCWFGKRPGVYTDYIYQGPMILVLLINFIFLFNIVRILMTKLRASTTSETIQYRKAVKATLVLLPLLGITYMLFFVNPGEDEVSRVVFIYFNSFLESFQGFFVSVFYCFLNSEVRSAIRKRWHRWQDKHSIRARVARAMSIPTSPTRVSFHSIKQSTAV
How it was run: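 Cellular cAMP was read by time-resolved FRET between d2-labelled cAMP and cryptate anti-cAMP antibody. The cells were freshly thawed suspension CHO-K1 cells stably expressing human CRHR1.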

[3] = library peptides, matched molecular pairs L vs Nle in position X^38, read-out: Potency hCRHR2 pEC50 (converted)
[4] = library peptides, matched molecular pairs L vs Nle in position X^38, read-out: Potency hCRHR1 pEC50 (converted)
[5] = Table 3, matched molecular pairs X^38 L vs Nle, peptide library of Example 4, read-out: hCRHR2 pEC50 (converted)
[6] = Table 3, matched molecular pairs X^38 L vs Nle, peptide library of Example 4, read-out: hCRHR1 pEC50 (converted)

| Structure (SMILES) | EC50 [1, 3] [nM] | EC50 [2, 4] [nM] | EC50 [1, 5] [nM] | EC50 [2, 6] [nM] |
| --- | --- | --- | --- | --- |
| CC[C@H](C)[C@H](N)C(=O)N[C@H](C(=O)N[C@@H](CC(C)C)C(=O)N[C@@H](CO)C(=O)N[C@@H](CC(C)C)C(=O)N[C@@H](CC(=O)O)C(=O)N[C@H](C(=O)N1CCC[C@H]1C(=O)N[C@H](C(=O)NCC(=O)N[C@@H](CC(C)C)C(=O)N[C@@H](CC(C)C)C(=O)N[C@@H](CCC(N)=O)C(=O)N[C@H](C(=O)N[C@@H](CC(C)C)C(=O)N[C@@H](CC(C)C)C(=O)N[C@@H](CCC(=O)O)C(=O)N[C@@H](CCC(N)=O)C(=O)N[C@@H](C)C(=O)N[C@@H](CCCNC(=N)N)C(=O)N[C@@H](C)C(=O)N[C@@H](CCC(N)=O)C(=O)N[C@@H](C)C(=O)N[C@@H](C)C(=O)N[C@@H](CCCNC(=N)N)C(=O)N[C@@H](CCC(=O)O)C(=O)N[C@@H](CCC(N)=O)C(=O)N[C@@H](C)C(=O)N[C@@H](CCCCNC(=O)COCCOCCNC(=O)COCCOCCNC(=O)CC[C@H](NC(=O)CC[C@H](NC(=O)CCCCCCCCCCCCCCCCCCC(=O)O)C(=O)O)C(=O)O)C(=O)N[C@H](C(=O)N[C@@H](CC(N)=O)C(=O)N[C@@H](C)C(=O)N[C@@H](CCC(=O)O)C(=O)N[C@H](C(=O)N[C@@H](CC(C)C)C(=O)N[C@@H](C)C(=O)N[C@@H](CCC(=O)O)C(=O)N[C@H](C(N)=O)C(C)C)[C@@H](C)CC)[C@@H](C)O)[C@@H](C)CC)[C@@H](C)CC)C(C)C)C(C)C [compound 62] (H-IVLSLDVPIGLLQILLEQARAQAAREQAK([AEEA-AEEA-γGlu-γGlu-C20 diacid])TNAEILAEV-NH2) | 0.316 | 25100 |  |  |
| CC[C@H](C)[C@H](N)C(=O)N[C@H](C(=O)N[C@@H](CC(C)C)C(=O)N[C@@H](CO)C(=O)N[C@@H](CC(C)C)C(=O)N[C@@H](CC(=O)O)C(=O)N[C@H](C(=O)N1CCC[C@H]1C(=O)N[C@H](C(=O)NCC(=O)N[C@@H](CC(C)C)C(=O)N[C@@H](CC(C)C)C(=O)N[C@@H](CCC(N)=O)C(=O)N[C@H](C(=O)N[C@@H](CC(C)C)C(=O)N[C@@H](CC(C)C)C(=O)N[C@@H](CCC(=O)O)C(=O)N[C@@H](CCC(N)=O)C(=O)N[C@@H](C)C(=O)N[C@@H](CCCNC(=N)N)C(=O)N[C@@H](C)C(=O)N[C@@H](CCC(=O)O)C(=O)N[C@@H](CO)C(=O)N[C@@H](C)C(=O)N[C@@H](CCCNC(=N)N)C(=O)N[C@@H](CCC(=O)O)C(=O)N[C@@H](CCC(N)=O)C(=O)N[C@@H](C)C(=O)N[C@@H](CCCCNC(=O)COCCOCCNC(=O)COCCOCCNC(=O)CC[C@H](NC(=O)CC[C@H](NC(=O)CCCCCCCCCCCCCCCCCCC(=O)O)C(=O)O)C(=O)O)C(=O)N[C@H](C(=O)N[C@@H](CC(N)=O)C(=O)N[C@@H](C)C(=O)N[C@@H](CCC(=O)O)C(=O)N[C@H](C(=O)N[C@@H](CC(C)C)C(=O)N[C@@H](C)C(=O)N[C@@H](CCC(=O)O)C(=O)N[C@H](C(N)=O)C(C)C)[C@@H](C)CC)[C@@H](C)O)[C@@H](C)CC)[C@@H](C)CC)C(C)C)C(C)C [SEQ ID NO: 41] (H-IVLSLDVPIGLLQILLEQARAESAREQAK([AEEA-AEEA-γGlu-γGlu-C20 diacid])TNAEILAEV-NH2) |  |  | 0.631 | 15800 |
| CC[C@H](C)[C@H](N)C(=O)N[C@H](C(=O)N[C@@H](CC(C)C)C(=O)N[C@@H](CO)C(=O)N[C@@H](CC(C)C)C(=O)N[C@@H](CC(=O)O)C(=O)N[C@H](C(=O)N1CCC[C@H]1C(=O)N[C@H](C(=O)NCC(=O)N[C@@H](CC(C)C)C(=O)N[C@@H](CC(C)C)C(=O)N[C@@H](CCC(N)=O)C(=O)N[C@H](C(=O)N[C@@H](CC(C)C)C(=O)N[C@@H](CC(C)C)C(=O)N[C@@H](CCC(=O)O)C(=O)N[C@@H](CCC(N)=O)C(=O)N[C@@H](C)C(=O)N[C@@H](CCCNC(=N)N)C(=O)N[C@@H](C)C(=O)N[C@@H](CCCNC(=N)N)C(=O)N[C@@H](C)C(=O)N[C@@H](CCC(N)=O)C(=O)N[C@@H](CCCNC(=N)N)C(=O)N[C@@H](CCC(=O)O)C(=O)N[C@@H](CCC(N)=O)C(=O)N[C@@H](C)C(=O)N[C@@H](CCCCNC(=O)COCCOCCNC(=O)COCCOCCNC(=O)CC[C@H](NC(=O)CC[C@H](NC(=O)CCCCCCCCCCCCCCCCCCC(=O)O)C(=O)O)C(=O)O)C(=O)N[C@H](C(=O)N[C@@H](CC(N)=O)C(=O)N[C@@H](C)C(=O)N[C@@H](CCC(=O)O)C(=O)N[C@H](C(=O)N[C@@H](CC(C)C)C(=O)N[C@@H](C)C(=O)N[C@@H](CCC(=O)O)C(=O)N[C@H](C(N)=O)[C@@H](C)CC)[C@@H](C)CC)[C@@H](C)O)[C@@H](C)CC)[C@@H](C)CC)C(C)C)C(C)C [compound 64] (H-IVLSLDVPIGLLQILLEQARARAQREQAK([AEEA-AEEA-γGlu-γGlu-C20 diacid])TNAEILAEI-NH2) | 0.126 | 25100 |  |  |
| CC[C@H](C)[C@H](N)C(=O)N[C@H](C(=O)N[C@@H](CC(C)C)C(=O)N[C@@H](CO)C(=O)N[C@@H](CC(C)C)C(=O)N[C@@H](CC(=O)O)C(=O)N[C@H](C(=O)N1CCC[C@H]1C(=O)N[C@H](C(=O)NCC(=O)N[C@@H](CC(C)C)C(=O)N[C@@H](CC(C)C)C(=O)N[C@@H](CCC(N)=O)C(=O)N[C@H](C(=O)N[C@@H](CC(C)C)C(=O)N[C@@H](CC(C)C)C(=O)N[C@@H](CCC(=O)O)C(=O)N[C@@H](CCC(N)=O)C(=O)N[C@@H](C)C(=O)N[C@@H](CCCNC(=N)N)C(=O)N[C@@H](C)C(=O)N[C@@H](CCCNC(=N)N)C(=O)N[C@@H](C)C(=O)N[C@@H](CCC(N)=O)C(=O)N[C@@H](CCCNC(=N)N)C(=O)N[C@@H](CCC(=O)O)C(=O)N[C@@H](CCC(=O)O)C(=O)N[C@@H](C)C(=O)N[C@@H](CCCCNC(=O)COCCOCCNC(=O)COCCOCCNC(=O)CC[C@H](NC(=O)CC[C@H](NC(=O)CCCCCCCCCCCCCCCCCCC(=O)O)C(=O)O)C(=O)O)C(=O)N[C@H](C(=O)N[C@@H](CC(N)=O)C(=O)N[C@@H](C)C(=O)N[C@@H](CCC(=O)O)C(=O)N[C@H](C(=O)N[C@@H](CC(C)C)C(=O)N[C@@H](C)C(=O)N[C@@H](CCC(=O)O)C(=O)N[C@H](C(N)=O)C(C)C)[C@@H](C)CC)[C@@H](C)O)[C@@H](C)CC)[C@@H](C)CC)C(C)C)C(C)C [SEQ ID NO: 33] (H-IVLSLDVPIGLLQILLEQARARAQREEAK([AEEA-AEEA-γGlu-γGlu-C20 diacid])TNAEILAEV-NH2) |  |  | 1.26 | 126000 |
| CCCC[C@H](NC(=O)[C@@H](NC(=O)[C@H](CCC(=O)O)NC(=O)[C@H](C)NC(=O)[C@H](CC(N)=O)NC(=O)[C@@H](NC(=O)[C@H](CCCCNC(=O)COCCOCCNC(=O)COCCOCCNC(=O)CC[C@H](NC(=O)CC[C@H](NC(=O)CCCCCCCCCCCCCCCCCCC(=O)O)C(=O)O)C(=O)O)NC(=O)[C@H](C)NC(=O)[C@H](CCC(N)=O)NC(=O)[C@H](CCC(=O)O)NC(=O)[C@H](CCCNC(=N)N)NC(=O)[C@H](C)NC(=O)[C@@H](NC(=O)[C@H](CCCNC(=N)N)NC(=O)[C@H](C)NC(=O)[C@H](CCCNC(=N)N)NC(=O)[C@H](C)NC(=O)[C@H](CCC(N)=O)NC(=O)[C@H](CCC(=O)O)NC(=O)[C@H](CC(C)C)NC(=O)[C@H](CC(C)C)NC(=O)[C@@H](NC(=O)[C@H](CCC(N)=O)NC(=O)[C@H](CC(C)C)NC(=O)[C@H](CC(C)C)NC(=O)CNC(=O)[C@@H](NC(=O)[C@@H]1C[C@H](N)CN1C(=O)[C@@H](NC(=O)[C@H](CC(=O)O)NC(=O)[C@H](CC(C)C)NC(=O)[C@H](CO)NC(=O)[C@H](CC(C)C)NC(=O)[C@@H](NC(=O)[C@@H](N)[C@@H](C)CC)C(C)C)C(C)C)[C@@H](C)CC)[C@@H](C)CC)C(C)C)[C@@H](C)O)[C@@H](C)CC)C(=O)N[C@@H](C)C(=O)N[C@@H](CCC(=O)O)C(=O)N[C@H](C(N)=O)C(C)C [compound 77] (H-IVLSLDV[Pro(4S-NH2)]IGLLQILLEQARARVAREQAK([AEEA-AEEA-γGlu-γGlu-C20 diacid])TNAEI[Nle]AEV-NH2) | 0.501 | 3.16 |  |  |

From patent publication EP4810052A2, “HCRHR2 SELECTIVE POLYPEPTIDES” (Gubra A/S, priority 2023, dated 2026)
